≈ marks a conversion by molar mass, not a printed value.
Legend:
[1] = biological target: T1, human recombinant cyclooxygenase-2 (Homo sapiens, UniProt P35354); assay: COX inhibitor screening assay (Cayman kit); assay type: biochemical; conditions: tested at 10 µM
T1 construct: purchased Cayman Chemical 560131
T1 sequence (P35354 18-604): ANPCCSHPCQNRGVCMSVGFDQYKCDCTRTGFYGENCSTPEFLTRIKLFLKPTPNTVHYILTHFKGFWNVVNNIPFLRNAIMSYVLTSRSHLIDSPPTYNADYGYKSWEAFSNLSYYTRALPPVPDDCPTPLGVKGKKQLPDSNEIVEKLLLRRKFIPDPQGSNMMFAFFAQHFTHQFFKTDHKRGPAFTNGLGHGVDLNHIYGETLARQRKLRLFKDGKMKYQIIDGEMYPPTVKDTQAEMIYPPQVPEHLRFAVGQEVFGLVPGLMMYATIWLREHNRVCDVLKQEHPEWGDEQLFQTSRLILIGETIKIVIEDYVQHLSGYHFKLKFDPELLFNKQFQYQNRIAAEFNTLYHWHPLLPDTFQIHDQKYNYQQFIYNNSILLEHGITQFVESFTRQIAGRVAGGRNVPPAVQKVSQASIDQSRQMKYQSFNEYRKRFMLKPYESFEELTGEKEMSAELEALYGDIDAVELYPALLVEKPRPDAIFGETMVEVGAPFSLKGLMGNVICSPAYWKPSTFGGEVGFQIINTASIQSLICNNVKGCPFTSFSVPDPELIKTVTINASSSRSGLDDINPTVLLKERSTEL
Description: Additionally, molecular docking studies using AutoDock Vina software (TSRI, La Jolla, CA, USA) were performed to aid in the interpretation of the experimental results. […] Nevertheless, these compounds represent an interesting starting point towards the design of new antiparasitic compounds with an additional COX-2 inhibitory property.
Assays were carried out by duplicate following the instructions provided by the manufacturer.

[2] = tested on: Entamoeba histolytica strain HM1-IMSS; assay: In vitro antiprotozoal assay (trophozoite subculture method); assay type: cell-based; conditions: for IC50: Entamoeba histolytica, trophozoites, 48 h with compound then 48 h subculture without drug, read-out: IC50 (µM) E. histolytica
Description: (§1) The in vitro antiprotozoal assays against E. histolytica, G. intestinalis, and T. vaginalis of the 2-phenyl-2H-indazole and 2,3-diphenyl-2H-indazole derivatives were carried out following the method previously described. Metronidazole (MTZ) and albendazole (ABZ) were used as reference drugs. […] Similarly, compound 7, having a phenyl at position 2, has good activity against the three protozoa, ranking third in activity for T. vaginalis and forth against G. intestinalis and E. histolytica. […] These derivatives had groups H, COOCH3, Cl, and SO2CH3 at positions 2 and 3, substituents that induced the best response in 2-phenyl-2H-indazole derivatives. In addition, carboxylic acids 20 and 25 were of interest for comparative purposes with ester derivatives.
(§2) Trichomonas vaginalis strain GT3, Giardia intestinalis isolate IMSS:0981:1, and Entamoeba histolytica strain HM1-IMSS were used. Trophozoites of G. intestinalis were maintained in a TYI-S-33 medium supplemented with 10% calf serum and bovine bile. E. histolytica and T. vaginalis trophozoites were maintained in TYI-S-33 medium supplemented with 10% bovine serum. Briefly, 5 × 10^4 trophozoites of G. intestinalis or T. vaginalis, or 6 × 10^3 trophozoites of E. histolytica were incubated for 48 h at 37 °C with different concentrations of the compound to be tested, each added as solutions in DMSO. As a negative control, parasite cultures received an equivalent amount of DMSO only, while albendazole and metronidazole were included as positive controls. At the end of the treatment period, the cells were washed and subcultured for another 48 h in a fresh medium to which no drug was added. […] Experiments were carried out in triplicate and repeated at least twice.

[3] = tested on: Giardia intestinalis isolate IMSS:0981:1; assay: as above; assay type: cell-based; conditions: Giardia duodenalis; trophozoites, 48 h with compound then 48 h subculture without drug; read-out: IC50 (µM) G. intestinalis
Description: as §1, §2

[4] = tested on: Trichomonas vaginalis strain GT3; assay: as above; assay type: cell-based; conditions: Trichomonas vaginalis, GT3; trophozoites, 48 h with compound then 48 h subculture without drug; read-out: IC50 (µM) T. vaginalis
Description: as §1, §2

[5] = tested on: Salmonella enterica serovar Typhi; assay: Disk diffusion susceptibility test; assay type: cell-based; conditions: for Inhibition (positive / none) S. Typhi: 5 mg per disc, 37 °C, 24 h
[6] = tested on: Candida albicans; assay: Disk diffusion susceptibility test; assay type: cell-based
[7] = tested on: Escherichia coli strain EDL933 (EHEC); assay: Disk diffusion susceptibility test; assay type: cell-based; conditions: 5 mg per disc, 37 °C, 24 h
[8] = tested on: Escherichia coli strain 042 (EAEC); assay: Disk diffusion susceptibility test; assay type: cell-based; conditions: 5 mg per disc, 37 °C, 24 h
[9] = tested on: Candida glabrata; assay: Disk diffusion susceptibility test; assay type: cell-based
[10] = tested on: C. albicans; assay: Minimum inhibitory concentration (antimycotic effect); assay type: cell-based; conditions: Candida albicans
[11] = tested on: C. glabrata; assay: as above; assay type: cell-based, Candida glabrata; conditions: Nakaseomyces glabratus
[12] = positive control, ketoconazole 50 µg

Compound	melting point	% of Inhibition of COX-2 [1]	IC50 [2]	IC50 [3]	IC50 [4]	Inhibition (positive / none) S. Typhi [5]	zone of inhibition at 5000 µg/disc ([5]; Salmonella enterica, TYPHI, read-out: Zone of inhibition at 5 mg per disc (mm) S. Typhi)	Inhibition (positive / none) C. albicans ([6]; 5 mg per disc, 37 °C, 24 h)	Inhibition (positive / none) E. coli 933 [7]	Inhibition (positive / none) E. coli 042 [8]	Inhibition (positive / none) C. glabrata ([9]; 5 mg per disc, 37 °C, 24 h)	inhibition at 10 µM [1]	improvement in potency against E. histolytica relative to the analog ([2]; 17 compared with 8, 20 compared to 13, 26 compared to 21)	MIC [10]	Inhibition (positive / none) C. albicans [6, 12]	Inhibition (positive / none) C. glabrata [9, 12]	MIC [11]
c1ccc(-n2cc3ccccc3n2)cc1 [Compound 7, 2-Phenyl-2H-indazole]	81.2 to 81.6 °C	Inactive	0.0798 ± 0.0036 µM	0.113 ± 0.0218 µM	0.118 ± 0.0218 µM	+	9 mm	-	-	-	-						
CS(=O)(=O)c1ccc(-n2nc3ccccc3c2-c2ccccc2)cc1 [Compound 21, 2-(4-(Methylsulfonyl)phenyl)-3-phenyl-2H-indazole]	101.8 to 102.7 °C		0.208 ± 0.0061 µM	0.124 ± 0.0122 µM	0.214 ± 0.0101 µM	-		-	-	-	-	44.5 ± 2.65%					
CS(=O)(=O)c1ccc(-c2c3ccccc3nn2-c2ccccc2)cc1 [Compound 26, 3-(4-(Methylsulfonyl)phenyl)-2-phenyl-2H-indazole]	206.9 to 208.8 °C		0.0459 ± 0.0081 µM	0.106 ± 0.0081 µM	0.184 ± 0.0162 µM	-		-	-	-	-	41.2 ± 5.93%	four-fold				
CC(=O)N1CCN(c2ccc(OCC3COC(Cn4ccnc4)(c4ccc(Cl)cc4Cl)O3)cc2)CC1 (stereo not drawn) [Ketoconazole, reference compound]														0.045 mM (≈ 23.9 µg/mL)	+	+	0.079 mM (≈ 42 µg/mL)
